Data taken from patent US10640495B2, “Heterocycle derivatives having TrkA inhibitory activity” (Shionogi & Co., Ltd., priority 2015, dated 2020).
Read-outs that look alike come from different tables or passages of the source.

Molecular target: human TrkA (Homo sapiens (Human), UniProt P04629)
Assay: Human TrkA inhibition assay (Test Example 2)
Type: biochemical
Outline: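 Mobility-shift readout of phosphorylated versus unphosphorylated fluorescent peptide gave conversion ratio, normalized to DMSO and no-enzyme wells; IC50 by logistic fit of 10- or 15-point 3-fold dilutions. Conditions: 1 nmol/L enzyme, 15 min compound preincubation, then 500 μmol/L ATP plus 1.5 μmol/L peptide, 120 min, 37 °C.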

[1] = Table 157, human TrkA inhibition, read-out: IC50
[2] = Table 155, human TrkA inhibition, read-out: IC50
[3] = Table 153, human TrkA inhibition, read-out: IC50
[4] = human TrkA 1 nmol/L, ATP 500 μmol/L, 120 min at 37° C., read-out: IC50 values (TrkA phosphorylation inhibition)
[5] = Table 154, human TrkA inhibition, read-out: IC50
[6] = Table 156, human TrkA inhibition, read-out: IC50

Chain of human TrkA (P04629 440-796): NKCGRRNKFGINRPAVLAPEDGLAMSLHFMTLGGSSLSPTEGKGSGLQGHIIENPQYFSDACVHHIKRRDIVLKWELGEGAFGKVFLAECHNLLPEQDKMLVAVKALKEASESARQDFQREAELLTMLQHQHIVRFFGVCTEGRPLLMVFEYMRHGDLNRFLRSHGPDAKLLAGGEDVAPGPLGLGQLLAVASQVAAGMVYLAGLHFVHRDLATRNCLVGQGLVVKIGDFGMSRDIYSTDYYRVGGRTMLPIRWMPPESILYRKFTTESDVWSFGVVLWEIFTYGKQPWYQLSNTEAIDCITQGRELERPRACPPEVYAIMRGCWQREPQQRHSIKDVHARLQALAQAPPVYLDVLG

With COCCN1CC(NC(=O)Nc2c(C)c(-c3cnc(N4CC5(CCO5)C4)nc3)nn2-c2ccccc2)C(c2ccnc(F)c2)O1 (racemic) [Compound I-581] the IC50 [1] was under 0.1 µM.
With COCCN1C[C@@H](NC(=O)Nc2c(C)c(-c3ccc(=O)n(C)c3)nn2-c2ccccc2)[C@H](c2ccnc(F)c2)O1 (racemic) [Compound I-496] the IC50 [2] was under 0.1 µM.
In the case of COCCN1C[C@@H](NC(=O)Nc2c(C)c(-c3cnc4c(c3)N(C)C(CO)CO4)nn2-c2ccccc2)[C@H](c2ccnc(F)c2)O1 (mixture of isomers) [Compound I-338], the IC50 [2] is reported as under 0.1 µM.
Work on COCCN1C[C@@H](NC(=O)Nc2c(C)c(-c3cnc4c(c3)OCCO4)nn2-c2ccccc2)[C@H](c2ccnc(F)c2)O1 (racemic) [Compound I-427] yielded an IC50 [2] of under 0.1 µM.
In the case of COCCN1C[C@@H](NC(=O)Nc2c(C)c(-c3cnc(C)nc3)nn2-c2ccccc2)[C@H](c2cnc(Cl)s2)O1 (racemic) [Compound I-154], the IC50 [3] is reported as under 0.1 µM.
In the case of CNc1ncc(-c2nn(-c3ccccc3)c(NC(=O)N[C@@H]3CN(CCOC)O[C@H]3c3cnc(F)c(F)c3)c2C)cn1 [Compound I-135], the IC50 [4] is reported as 0.00052 µM.
With COCCN1C[C@@H](NC(=O)Nc2c(C)c(-c3cnc4c(c3)nc(N3CCN(C)CC3)n4C)nn2-c2ccccc2)[C@H](c2ccnc(F)c2)O1 (racemic) [Compound I-399] the IC50 [2] was under 0.1 µM.
COCCN1C[C@@H](NC(=O)Nc2c(C)c(-c3ccc4nnc(C)n4c3)nn2-c2ccccc2)[C@H](c2ccc(F)cc2)O1 (racemic) [Compound I-267] showed an IC50 [5] of under 0.1 µM.
COCCN1C[C@@H](NC(=O)Nc2c(C)c(-c3cnc(C4CC4)nc3)nn2-c2ccccc2)[C@H](c2ccnc(F)c2)O1 (racemic) [Compound I-115] showed an IC50 [3] of under 0.1 µM.
For COCCN1C[C@@H](NC(=O)Nc2c(C)c(-c3cnc4c(c3)ncn4CC(F)(F)F)nn2-c2ccccc2)[C@H](c2ccnc(F)c2)O1 (racemic) [Compound I-240], the IC50 [5] was under 0.1 µM.
With COCCN1C[C@@H](NC(=O)Nc2c(C)c(-c3ccc4nnc(C)n4c3)nn2-c2ccccc2)[C@H](c2ccnc(F)c2)O1 (racemic) [Compound I-158] the IC50 [3] was under 0.1 µM.
With COCCN1C[C@@H](NC(=O)Nc2c(C)c(-c3cnc4c(c3)c(=O)n(C)n4C)nn2-c2ccccc2)[C@H](c2ccc(F)c(F)c2)O1 [Compound I-216] the IC50 [5] was under 0.1 µM.
For COCCN1C[C@@H](NC(=O)Nc2c(C)c(-c3cnc4c(c3)CN(Cc3ccccc3)CC4)nn2-c2ccccc2)[C@H](c2ccnc(F)c2)O1 (racemic) [Compound I-428], the IC50 [2] was under 0.1 µM.
COCCN1C[C@@H](NC(=O)Nc2c(C)c(-c3cnc4cccnc4c3)nn2-c2ccccc2)[C@H](c2ccnc(F)c2)O1 (racemic) [Compound I-188] gave an IC50 [5] of under 0.1 µM.
For CNC(=O)c1ncc(-c2nn(-c3ccccc3)c(NC(=O)N[C@@H]3CN(CCOC)O[C@H]3c3ccnc(F)c3)c2C)cc1C [Compound I-325], the IC50 [4] was 0.0025 µM.
In the case of CCN1C[C@@H](NC(=O)Nc2c(C)c(OC(C)C3CCN(C)CC3)nn2-c2ccccc2)[C@H](c2ccc(F)c(F)c2)O1 (stereo partly shown) [Compound I-679], the IC50 [1] is reported as under 0.1 µM.
Compound CNC(=O)c1cc(-c2nn(-c3ccccc3)c(NC(=O)N[C@@H]3CN(CCOC)O[C@H]3c3cccc(F)c3)c2C)cn(C)c1=O (racemic) [Compound I-143] has an IC50 [3] of under 0.1 µM.
COCC[C@@H]1C[C@@H](NC(=O)Nc2c(C)c(C3=CCN(C(=O)CO)CC3)nn2-c2ccccc2)[C@H](c2ccc(F)c(F)c2)O1 [Compound I-59] was tested, and the IC50 [3] was under 0.1 µM.
Compound CCN1CCC(NC(=O)c2cc(-c3nn(-c4ccccc4)c(NC(=O)N[C@@H]4C[C@@H](CCOC)O[C@H]4c4ccc(F)c(F)c4)c3C)ccn2)CC1 (racemic) [Compound I-64] has an IC50 [3] of under 0.1 µM.
In the case of CCN1C[C@@H](NC(=O)Nc2c(C)c(OCCCC(=O)NC)nn2-c2ccccc2)[C@H](c2ccc(F)c(F)c2)O1 (racemic) [Compound I-659], the IC50 [1] is reported as under 0.1 µM.
For CCN1C[C@@H](NC(=O)Nc2c(C)c(OCCCC(=O)NCCO)nn2-c2ccccc2)[C@H](c2ccc(F)c(F)c2)O1 (racemic) [Compound I-668], the IC50 [1] was under 0.1 µM.
In the case of COCCN1C[C@@H](NC(=O)Nc2c(C)c(-c3ccc(N4CCNCC4)nc3)nn2-c2ccccc2)[C@H](c2ccnc(F)c2)O1 (racemic) [Compound I-374], the IC50 [2] is reported as under 0.1 µM.
COCCN1C[C@@H](NC(=O)Nc2c(C)c(-c3cnc4c(c3)ncn4C)nn2-c2ccccc2)[C@H](c2cccc(F)c2)O1 (racemic) [Compound I-141] was tested, and the IC50 [3] was under 0.1 µM.
In the case of COCCN1C[C@@H](NC(=O)Nc2c(C)c(-c3cnc(C(=O)NC4CC4)c(OC)c3)nn2-c2ccccc2)[C@H](c2ccnc(F)c2)O1 (racemic) [Compound I-339], the IC50 [2] is reported as under 0.1 µM.
Compound COCCN1C[C@@H](NC(=O)Nc2c(C)c(-c3cnc(OC)nc3)nn2-c2ccccc2)[C@H](c2ccc(F)c(F)c2)O1 [Compound I-407] has an IC50 [2] of under 0.1 µM.
For COCCN1C[C@@H](NC(=O)Nc2c(C)c(OCc3ccon3)nn2-c2ccccc2)[C@H](c2ccnc(F)c2)O1 (racemic) [Compound I-457], the IC50 [2] was under 0.1 µM.
In the case of COCCN1C[C@@H](NC(=O)Nc2c(C)c(OCC(=O)NC3CC3)nn2-c2ccccc2)[C@H](c2ccnc(F)c2)O1 (racemic) [Compound I-635], the IC50 [1] is reported as under 0.1 µM.
With CNC(=O)c1cc(-c2nn(-c3ccccc3)c(NC(=O)N[C@@H]3CN(CCOC)O[C@H]3c3ccnc(F)c3)c2C)cn(C)c1=O (racemic) [Compound I-106] the IC50 [3] was under 0.1 µM.
In the case of CNC(=O)c1ncc(-c2nn(-c3ccccc3)c(NC(=O)N[C@@H]3CN(CCOC)O[C@H]3c3ccc(F)c(F)c3)c2C)cc1NC [Compound I-315], the IC50 [4] is reported as 0.00076 µM.
COCCN1C[C@@H](NC(=O)Nc2c(C)c(-c3cnc(N4CCN(CC#N)CC4)nc3)nn2-c2ccccc2)[C@H](c2ccnc(F)c2)O1 (racemic) [Compound I-416] showed an IC50 [2] of under 0.1 µM.
COCCN1C[C@@H](NC(=O)Nc2c(C)c(-c3ccnc(C(=O)O)c3)nn2-c2ccccc2)[C@H](c2ccnc(F)c2)O1 (racemic) [Compound I-212] gave an IC50 [5] of under 0.1 µM.
COCCN1C[C@@H](NC(=O)Nc2c(C)c(-c3cnc(OC)c(C(N)=O)c3)nn2-c2ccccc2)[C@H](c2cnc(F)c(F)c2)O1 (racemic) [Compound I-101] gave an IC50 [3] of under 0.1 µM.
Work on COCCN1C[C@@H](NC(=O)Nc2c(C)c(-c3cnc(N4CCNCC4)nc3)nn2-c2ccccc2)[C@H](c2cc(F)nc(F)c2)O1 (racemic) [Compound I-415] yielded an IC50 [2] of under 0.1 µM.
COCCN1C[C@@H](NC(=O)Nc2c(C)c(-c3ccnc(C(=O)OC)c3)nn2-c2ccccc2)[C@H](c2cnc(F)c(F)c2)O1 [Compound I-197] was tested, and the IC50 [5] was under 0.1 µM.
COCCN1C[C@@H](NC(=O)Nc2c(C)c(-c3cnc(N4CC(OC)C4)nc3)nn2-c2ccccc2)[C@H](c2ccnc(F)c2)O1 [Compound I-555] showed an IC50 [4] of 0.00093 µM.
CCN1C[C@@H](NC(=O)Nc2c(C)c(OCC(C)(C)O)nn2-c2ccccc2)[C@H](c2ccc(F)c(F)c2)O1 (racemic) [Compound I-656] showed an IC50 [1] of 0.1 to 1 µM.
With COCCN1C[C@@H](NC(=O)Nc2c(C)c(-c3ccnc(C(=O)O)c3)nn2-c2ccccc2)[C@H](c2ccc(F)c(F)c2)O1 (racemic) [Compound I-190] the IC50 [4] was 0.0021 µM.
COCCN1C[C@@H](NC(=O)Nc2c(C)c(-c3cnc(N4CCNCC4)nc3)nn2-c2ccccc2)[C@H](c2ccnc(F)c2)O1 (racemic) [Compound I-414] showed an IC50 [2] of under 0.1 µM.
For COCCN1C[C@@H](NC(=O)Nc2c(C)c(-c3cnn(C)c3)nn2-c2ccccc2)[C@H](c2cnc(Cl)s2)O1 (racemic) [Compound I-137], the IC50 [3] was under 0.1 µM.
In the case of CNc1ncc(-c2nn(-c3ccccc3)c(NC(=O)N[C@@H]3C[C@@H](CCOC)O[C@H]3c3ccnc(F)c3)c2C)cn1 [Compound I-292], the IC50 [5] is reported as under 0.1 µM.
For COCCN1C[C@@H](NC(=O)Nc2c(C)c(-c3ccc(N4CCN(C)CC4)nc3)nn2-c2ccccc2)[C@H](c2ccnc(F)c2)O1 (racemic) [Compound I-392], the IC50 [4] was 0.0068 µM.
Compound COCCN1C[C@@H](NC(=O)Nc2c(C)c(-c3cnc(OC)c(C(=O)N[C@@H]4CCOC4)c3)nn2-c2ccccc2)[C@H](c2ccnc(F)c2)O1 [Compound I-192] has an IC50 [5] of under 0.1 µM.
CCN1C[C@@H](NC(=O)Nc2c(C)c(OCC3CCNCC3)nn2-c2ccccc2)[C@H](c2ccc(F)cc2)O1 (racemic) [Compound I-562] gave an IC50 [6] of under 0.1 µM.
COCCN1C[C@@H](NC(=O)Nc2c(C)c(-c3cc(C)c4nccn4c3)nn2-c2ccccc2)[C@H](c2ccnc(F)c2)O1 (racemic) [Compound I-348] gave an IC50 [2] of under 0.1 µM.
CNC(=O)c1ncc(-c2nn(-c3ccccc3)c(NC(=O)N[C@@H]3CN(CCOC)O[C@H]3c3ccnc(F)c3)c2C)cc1F (racemic) [Compound I-256] was tested, and the IC50 [5] was under 0.1 µM.
With Cc1c(OCC2CCNCC2)nn(-c2ccccc2)c1NC(=O)N[C@@H]1CN(CC(F)F)O[C@H]1c1ccc(F)c(F)c1 (racemic) [Compound I-561] the IC50 [6] was under 0.1 µM.
Compound COCCN1C[C@@H](NC(=O)Nc2c(C)c(-c3cccc(N(C)C)c3)nn2-c2ccccc2)[C@H](c2ccc(F)c(F)c2)O1 [Compound I-450] has an IC50 [2] of under 0.1 µM.
COCCN1C[C@@H](NC(=O)Nc2c(C)c(-c3cnc(OC)c(CO)c3)nn2-c2ccccc2)[C@H](c2ccc(F)c(F)c2)O1 [Compound I-637] showed an IC50 [1] of under 0.1 µM.
Cc1c(OCC2CCN(C)CC2)nn(-c2ccccc2)c1NC(=O)N[C@@H]1CN(CC(F)F)O[C@H]1c1ccc(F)c(F)c1 (racemic) [Compound I-568] showed an IC50 [6] of under 0.1 µM.
For COCCN1C[C@@H](NC(=O)Nc2c(C)c(-c3cc(COC(C)=O)c(=O)n(C)c3)nn2-c2ccccc2)[C@H](c2ccc(F)c(F)c2)O1 (racemic) [Compound I-124], the IC50 [3] was under 0.1 µM.
For CNC(=O)c1cc(-c2nn(-c3ccccc3)c(NC(=O)N[C@@H]3CN(CCOC)O[C@H]3c3cnc(F)c(F)c3)c2C)cnc1OC (racemic) [Compound I-73], the IC50 [4] was 0.0012 µM.
For CCN1C[C@@H](NC(=O)Nc2c(C)c(OCC3CNCCO3)nn2-c2ccccc2)[C@H](c2ccc(F)c(F)c2)O1 (stereo partly shown) [Compound I-537], the IC50 [6] was under 0.1 µM.
